Reference: PubChem BioAssay AID1996
In brackets after ≈: the same amount, converted by molar mass.

conditions: buffer; pH 7.4; 200.0 µM

Point of comparison: COc1cc2c(cc1OC)C(c1ccccc1Cl)N(C)CC2 (stereo unspecified), solubility kinetic 36.4 µg/mL (≈ 115 µM). Against it:
- O=C(Nc1ccccc1)NN(C(=O)CCl)c1ccccc1 — higher, > 45.6 µg/mL
- O=C(Nc1ccncc1)c1cccc2ccccc12 — higher, > 37.2 µg/mL
- COn1c(=O)c(-c2ccc(C)cc2)[n+]([O-])c2ccccc21 — higher, > 42.3 µg/mL
- Cc1ccc(S(=O)(=O)NC(C)C(=O)Nc2cccc([N+](=O)[O-])c2)cc1 (stereo unspecified) — 4.1-fold lower, 8.9 µg/mL (≈ 24.5 µM)
- CC1CC(C)CN(C(=O)COC(=O)Cc2ccc(Cl)cc2)C1 (stereo unspecified) — within 1.5-fold, 41.3 µg/mL (≈ 128 µM)
- CCCc1cc(=O)[nH]c(SCC(=O)N2CCOCC2)n1 — higher, > 44.6 µg/mL
- COC(=O)c1ccc(COc2ccc(C#N)cc2)o1 — 5.2-fold lower, 7 µg/mL (≈ 27.2 µM)
- O=C(Nc1ccc(F)cc1F)c1cc2ccccc2oc1=O — lower, < 0.6 µg/mL
- Cc1cc(SCc2ccc(Cl)cc2Cl)nc(=O)[nH]1 — 7.9-fold lower, 4.6 µg/mL (≈ 15.3 µM)
- O=C1NCCn2ccc(=O)cc21 — 1.7-fold lower, 21.6 µg/mL (≈ 132 µM)
- CCCCOc1ncnc2c1[nH]c1ccc(C)cc12 — 61-fold lower, 0.6 µg/mL (≈ 2.35 µM)
- CCn1cc(C(C)NC(=O)Nc2ccc3c(c2)OCO3)c(C)n1 (stereo unspecified) — higher, > 47.5 µg/mL
- O=C(CNC(=O)c1ccccc1F)NCc1cccnc1 — higher, > 43.1 µg/mL
- CS(=O)(=O)N(CC(=O)NC1CCCCC1)c1cccc(F)c1 — within 1.5-fold, 48.1 µg/mL (≈ 146 µM)
- Nc1c(Br)c(=O)[nH]c(=O)n1-c1ccc(F)cc1 — within 1.5-fold, 25.3 µg/mL (≈ 84.3 µM)
- Cn1c(S(=O)(=O)Cc2ccc(Cl)cc2)nc2ccccc21 — 4.2-fold lower, 8.7 µg/mL (≈ 27.1 µM)
- CCCNC(=O)Cn1sc2nc(C)cc(C)c2c1=O — higher, > 41.9 µg/mL
- O=C(NC1CCCCCC1)c1cc2ccccc2oc1=O — 11-fold lower, 3.4 µg/mL (≈ 11.9 µM)
- COc1ccccc1C(=O)NCc1ccccn1 — not separable, > 36.3 µg/mL
- Cc1ccc(C)c(C(=O)COC(=O)CN2C(=O)C3C4CCC(C4)C3C2=O)c1 (stereo unspecified) — higher, > 55.4 µg/mL
- CNCc1sccc1C.Cl — not separable, > 26.7 µg/mL
- O=C(Nc1cccc2ccccc12)c1ccccc1Cl — 21-fold lower, 1.7 µg/mL (≈ 6.03 µM)
- O=C(NC1CCCCC1)C1CCN(c2ncccn2)CC1 — higher, > 43.3 µg/mL
- CCn1c(=O)c2ccccc2n(Cc2ccccc2C)c1=O — 12-fold lower, 3.1 µg/mL (≈ 10.5 µM)
- O=C(CSc1nncc2ccccc12)Nc1ccccc1 — higher, > 44.3 µg/mL
- O=C1NC(c2ccc(Cl)cc2)Oc2ccccc21 (stereo unspecified) — 21-fold lower, 1.7 µg/mL (≈ 6.55 µM)
- CC(C)c1ccc(NS(=O)(=O)c2ccc(N3C(=O)CCC3=O)cc2)cc1 — within 1.5-fold, 43.6 µg/mL (≈ 117 µM)
- CC(C)NC(=O)COC(=O)c1ccc(Cl)c(S(N)(=O)=O)c1 — higher, > 50.2 µg/mL
- CCCC12CN3CC(C)(CN(C1)C3c1cccs1)C2=O (stereo unspecified) — within 1.5-fold, 39.1 µg/mL (≈ 135 µM)
- COc1ccc(C(=O)Nc2ccc3c(c2)n(C)c(=O)n3C)cc1OC — 4.3-fold lower, 8.4 µg/mL (≈ 24.6 µM)
- COc1ccc(OCC(=O)NCc2ccc(Cl)cc2)cc1 — 11-fold lower, 3.3 µg/mL (≈ 10.8 µM)
- COc1ccc(NS(=O)(=O)N2CCOCC2)cc1 — higher, > 40.8 µg/mL
- CC1CCCCC12NC(=O)N(CC(=O)Nc1ccc(OC(F)F)cc1)C2=O (stereo unspecified) — 2-fold lower, 18.2 µg/mL (≈ 47.7 µM)
- CCN1C/C(=N\S(=O)(=O)/N=C2\CN(CC)C(=O)N2CC)N(CC)C1=O — higher, > 55.9 µg/mL
- CCC(COC(C)=O)Nc1nc2c([nH]1)c(=O)n(C)c(=O)n2C (stereo unspecified) — higher, > 46.4 µg/mL
- Cc1cccnc1NC(=O)CCNC(=O)c1ccccc1Cl — higher, > 47.7 µg/mL
- Nc1ccc2c(c1)C(=O)c1ccccc1-2 — within 1.5-fold, 27.9 µg/mL (≈ 143 µM)
- CN(c1ccccc1)S(=O)(=O)c1cccc2ccccc12 — 17-fold lower, 2.2 µg/mL (≈ 7.4 µM)
- O=C(OCC(=O)N1CCN(c2ccc(F)cc2)CC1)c1cnc2ccccc2n1 — 1.9-fold lower, 19.5 µg/mL (≈ 49.4 µM)
- COC(/C(=N/O)c1ccc(Cl)cc1)c1ccccc1 (stereo unspecified) — within 1.5-fold, 35.8 µg/mL (≈ 130 µM)
- CCCOc1cccc(C(=O)Nc2cccc3ncccc23)c1 — 4.8-fold lower, 7.6 µg/mL (≈ 24.8 µM)
- Cc1ccc(NS(=O)(=O)c2cccc3nsnc23)cc1 — within 1.5-fold, 36 µg/mL (≈ 118 µM)
- CC1CN(c2nc(Nc3ccccc3)nc(N)c2[N+](=O)[O-])CC(C)O1 (stereo unspecified) — within 1.5-fold, 48.1 µg/mL (≈ 140 µM)
- CC1C(C#N)=C(N)OC2=C1C(=O)CC(c1ccccc1)C2 (stereo unspecified) — higher, > 42 µg/mL
- Cl.OC(CNC1CCCC1)COc1ccc(Cl)cc1 (stereo unspecified) — higher, > 45.9 µg/mL
- NS(=O)(=O)c1cccc(NC(=O)CN2CCN(S(=O)(=O)c3ccc4c(c3)OCCO4)CC2)c1 — higher, > 74.5 µg/mL
- Cc1cc(NC(=O)c2ccc([N+](=O)[O-])cc2)no1 — lower, < 0.2 µg/mL
- CCCc1nnc(NC(=O)CS(=O)(=O)c2ccccc2)s1 — higher, > 48.8 µg/mL
- CCn1c(=O)c2c(nc3n2CCN3c2ccccc2)n(C)c1=O — 12-fold lower, 3.1 µg/mL (≈ 9.96 µM)
- COc1ccccc1CC(=O)N1CCN(CCc2ccccc2)CC1 — higher, > 50.8 µg/mL
- CC(=O)c1ccc(NC(=O)C2C3CCC(C3)C2C(=O)O)cc1 (stereo unspecified) — higher, > 45.2 µg/mL
- Cc1ccc(NC2CC(=O)N(c3cccc([N+](=O)[O-])c3)C2=O)cc1 (stereo unspecified) — within 1.5-fold, 39 µg/mL (≈ 120 µM)
- Cc1cc2c(NCc3ccccc3)ncnc2s1.Cl — within 1.5-fold, 41.7 µg/mL
- NC(=O)c1ccsc1NC(=O)COC(=O)CCOc1ccccc1 — 2.2-fold lower, 16.9 µg/mL (≈ 48.5 µM)
- COc1cc2[nH]c(C(=O)NCCc3ccccc3)cc2c(OC)c1OC — 1.8-fold lower, 20.3 µg/mL (≈ 57.3 µM)
- N#Cc1cccc(C#N)c1Oc1ccc(N)cc1 — not separable, > 35.3 µg/mL
- COc1ccc(CNC(=O)CC2(CC(=O)O)CCCCC2)cc1 — higher, > 47.9 µg/mL
- CCOC(=O)CN1C(=N)N(c2nc(NC(C)C)nc(OC)n2)CC1=O — higher, > 52.7 µg/mL
- Cc1c(O)nc2sc3ccccc3n2c1=O — within 1.5-fold, 31.3 µg/mL (≈ 135 µM)
- Cc1ccc([N+](=O)[O-])c(OCc2ncc(Cl)n2C)c1 — 3.7-fold lower, 9.8 µg/mL (≈ 34.8 µM)
